Measurements: ChEMBL document CHEMBL5113385, “Natural products and synthetic analogues against HIV: A perspective to develop new potential anti-HIV drugs” (Eur J Med Chem, 2022)
Converted amounts (≈) assume the structure as drawn.

Tests used:
[1] = tested on: Human immunodeficiency virus 1; assay: Antiviral activity against HIV-1 NL4-3 infected in human MT4 cells assessed as reduction in viral replication incubated for 48 hrs followed by addition of fresh medium containing compound measured after 2 days by ELISA; format: functional, organism-based; conditions: Human immunodeficiency virus 1, NL4-3, MT4, 48 h
[2] = tested on: C8166; assay: Cytotoxicity against human C8166 cells assessed as reduction in cell viability by MTT assay; format: functional
[3] = tested on: Human immunodeficiency virus 1; assay: Antiviral activity against patient-derived wild-type HIV-1 infected in human CEM-T4 cells assessed as inhibition of viral replication preincubated for 24 hrs followed by viral infection measured after 7 days by ELISA; format: functional, organism-based; conditions: Human immunodeficiency virus 1, CEM-T4
[4] = biological target: Human immunodeficiency virus type 1 reverse transcriptase (Human immunodeficiency virus 1) (UniProt Q72547); assay: Displacement of [3H]TTP/polyA from HIV-1 reverse transcriptase at 200 ug/ml relative to control; conditions: dose 200.0 µg/ml
[5] = biological target: T1, Human immunodeficiency virus type 1 reverse transcriptase (Human immunodeficiency virus 1, UniProt Q72547); assay: Inhibition of HIV-1 reverse transcriptase preincubated for 45 mins followed by substrate addition by immunoassay
[6] = tested on: Human immunodeficiency virus 1; assay: Antiviral activity against HIV-1 MC99 harboring deltaTat/Rev infected in human 1A2 cells assessed as reduction in syncytium formation preincubated for 1 hr followed by virus infection measured after 3 days by inverted microscopy; format: functional, organism-based; conditions: Human immunodeficiency virus 1, MC99, 1A2
[7] = Selectivity index, ratio of IC50 for human 1A2 cells to EC50 for HIV-1 MC99 harboring deltaTat/Rev infected in human 1A2 cells; format: toxicity, cell-based; conditions: read-out: Ratio IC50/EC50
[8] = biological target: Human immunodeficiency virus type 1 reverse transcriptase (Human immunodeficiency virus 1) (UniProt Q72547); assay: Inhibition of recombinant HIV-1 reverse transcriptase at 200 ug/ml by ELISA relative to control; conditions: dose 200.0 µg/ml
[9] = tested on: Human immunodeficiency virus 1; assay: Antiviral activity against HIV-1 assessed as viral growth inhibition; format: functional, organism-based
[10] = tested on: Human immunodeficiency virus; assay: Antiviral activity against HIV infected in human PBMC assessed as inhibition of viral infection at MOI of 0.5 incubated for 48 hrs followed by removal of infected supernatant and subsequent addition of supernatant to human LC-5 cells expressing DsRed1 measured after 72 hrs by EASY-HIT assay; format: functional, organism-based; conditions: Human immunodeficiency virus 1, PBMC
[11] = biological target: T1, Human immunodeficiency virus type 1 reverse transcriptase; assay: Inhibition of HIV-1 LTR reverse transcriptase infected in human CEM cells using RNA template incubated for 1 hr by RT-PCR based cell-free assay
[12] = biological target: Human immunodeficiency virus type 1 reverse transcriptase (Human immunodeficiency virus 1) (UniProt Q72547); assay: Inhibition of HIV-1 reverse transcriptase using […] and oligo d(T)16 as primer at 200 ug/ml incubated for 1 hr by PicoGreen DNA fluorescence assay relative to control; conditions: dose 200.0 µg/ml
[13] = biological target: Human immunodeficiency virus type 1 reverse transcriptase (Human immunodeficiency virus 1) (UniProt Q72547); assay: Inhibition of HIV-1 reverse transcriptase at 200 ug/ml using poly(A) ribonucleotide as template and oligo d(T)16 as primer incubated for 1 hr by PicoGreen DNA fluorescence assay relative to control; conditions: dose 200.0 µg/ml
[14] = biological target: T1, Human immunodeficiency virus type 1 reverse transcriptase; assay: Inhibition of HIV-1 reverse transcriptase using ABTS as substrate and RNA template primed with oligo(dT)12-18 in presence of digoxigenin/biotin-labeled nucleotides by ELISA
[15] = Inhibition of wild-type HIV-1 BH10 reverse transcriptase-associated RNase H expressed in Escherichia coli using [gamma-32P]ATP-labeled 31Trna/21P as template/primer preincubated for 5 mins followed by template/primer addition by PAGE analysis; set-up: species or system Human immunodeficiency virus 1
[16] = tested on: Influenza A virus; assay: Antiviral activity against Influenza virus A/Puerto Rico/8/34 (H1N1) infected in MDCK cells assessed as reduction in viral titer preincubated for 1 hr followed by viral infection at MOI of 0.01 for 24 hrs and subsequent addition of culture medium and incubated for 48 hrs followed by addition of chicken erythrocytes measured after 40 mins by agglutination method; format: functional, organism-based

## C=C(C)[C@]12C[C@@H](COC(C)=O)[C@@]34OC5(O[C@@H]1[C@@H]3[C@@H]1O[C@]1(CO)[C@@H](O)[C@@]1(O)[C@H]4[C@H]([C@H](C)[C@@H]1C(=O)c1ccccc1)[C@H](C)C[C@H](C(=O)c1ccccc1)[C@H](C(=O)c1ccccc1)CCC[C@H]5O)O2
[1]
  IC50: ≤ 0.25 nM

## CO[C@H](Cc1cc2ccc(=O)oc2cc1O)C(C)(C)O
[2]
  CC50: > 200000 nM

## C=C(CP(=O)(OCC)OCC)[C@@H]1CC[C@]2(C(=O)O)CC[C@]3(C)[C@H](CC[C@@H]4[C@@]5(C)CC[C@H](OC(=O)CC(C)(C)C(=O)O)C(C)(C)[C@@H]5CC[C@]43C)[C@@H]12
[3]
  IC50: 300 nM

## O=c1cc(-c2ccc(O)cc2)oc2c([C@@H]3O[C@H](CO)[C@@H](O)[C@H](O)[C@H]3O)c(O)cc(O)c12
[4]
  inhibition: 56.9%

## O=C1CSC(c2ccc(O)cc2)N1c1nc2ccc(Cl)cc2s1 (stereo unspecified)
[5]
  IC50: 300 nM

## C=C(CO)[C@@H]1Cc2cc3ccc(=O)oc3cc2O1
[2]
  CC50: > 200000 nM

## COc1cc2c(c(O)c1OC)C(=O)C[C@@H](c1cc(O)c(OC)c(O)c1)O2
[6]
  EC50: < 8020 nM
[7]
  selectivity ratio: 1.12

## C=C(C)[C@]12C[C@@H](COC(C)=O)[C@@]34OC5(O[C@@H]1[C@@H]3[C@@H]1O[C@]1(CO)[C@@H](O)[C@@]1(O)[C@H]4[C@H]([C@H](C)[C@@H]1C(=O)c1ccccc1)[C@H](C)C[C@H](C(=O)c1ccccc1)[C@H](OC(C)=O)[C@@H](C(=O)c1ccccc1)CC[C@H]5O)O2
[1]
  IC50: ≤ 0.25 nM

## O=c1cc(-c2ccc(O)c(O)c2)oc2c([C@@H]3O[C@H](CO)[C@@H](O)[C@H](O)[C@H]3O)c(O)cc(O)c12
[4]
  inhibition: 52%

## O=C1C[C@@H](c2ccc(O)cc2)Oc2cc(O)cc(O)c21
[8]
  inhibition: 44.2%

## CCOc1ccc(S(=O)(=O)N2CCN(c3cc4c(cc3F)c(=O)c(C(=O)O)cn4CC)CC2)cc1
[9]
  IC50: 80 nM

## O=c1c(O)c(-c2ccc(O)c(O)c2)oc2cc(O)cc(O)c12
[8]
  inhibition: 43.4%

## COc1oc(C2C/C(=C/C(C)=C/c3ccc(C(F)(F)F)cc3)CO2)c(C)c(=O)c1C (stereo unspecified)
[10]
  IC50: < 45 nM

## COc1cc(-c2oc3cc(O)cc(O)c3c(=O)c2O)ccc1O
[8]
  inhibition: 57%

## O=C(OCc1ccccc1)N1OCCC1n1cc(COCc2ccccc2)c(=O)[nH]c1=O (stereo unspecified)
[11]
  IC50: 1000 nM

## C=CC(C)(C)c1cc2cc3c(cc2oc1=O)O[C@H](C(C)(C)O)[C@H]3O
[2]
  CC50: > 200000 nM

## CC1(C)CCc2cc3cc(O)c(=O)oc3cc2O1
[2]
  CC50: > 200000 nM

## COc1cc(OC)c([C@@H]2CC[C@H]3C[C@@H](c4cc(OC)c(OC)cc4OC)Oc4cc(OC)c(O)c2c43)cc1OC
[12]
  inhibition: 41.4%
[13]
  inhibition: 41.4%
[7]
  selectivity ratio: 3.7

## CCCCC/C=C/C=C/O[C@@]12[C@@H]([C@H]3OCO[C@@]3(C(C)=O)[C@H](OC(=O)CCCCC)[C@H]1C)[C@@H]1O[C@]1(CO)[C@@H](O)[C@]1(O)C(=O)C(C)=C[C@H]12
[1]
  IC50: 0.9 nM

## COC(=O)/C=C\c1c(-c2cccs2)[nH]c2ccccc12
[14]
  IC50: 9.38 nM

## CCCCC/C=C\C=C/O[C@@]12[C@@H]([C@H]3OCO[C@@]3(C(C)=O)[C@H](OC(C)=O)[C@H]1C)[C@@H]1O[C@]1(CO)[C@@H](O)[C@]1(O)C(=O)C(C)=C[C@H]12
[1]
  IC50: 0.9 nM

## C=CC(C)(C)c1cc2cc3c(c(CC=C(C)C)c2oc1=O)O[C@H](C(C)(C)O)C3
[2]
  CC50: > 200000 nM

## C=CC(C)(C)c1cc2cc(C[C@@H](O)C(C)(C)O)c(O)cc2oc1=O
[2]
  CC50: > 200000 nM

## CC(C)=CCc1cc2ccc(=O)oc2c(CC=C(C)C)c1O
[2]
  CC50: > 200000 nM

## Nc1ccc(S(=O)(=O)N2CCN(C(=O)c3cc(O)c(O)c(O)c3)CC2)cc1
[15]
  IC50: 720 nM

## Cc1cn([C@H]2C[C@H](n3cc(Cn4nnnc4CC(=O)N(C)C)nn3)[C@@H](CO)O2)c(=O)[nH]c1=O
[16]
  IC50: 39.6 µg/mL (≈ 86 µM)

## CCCCC/C=C/C=C/O[C@@]12[C@@H]([C@H]3OCO[C@@]3(C(C)=O)[C@H](OC(=O)CCCC)[C@H]1C)[C@@H]1O[C@]1(CO)[C@@H](O)[C@]1(O)C(=O)C(C)=C[C@H]12
[1]
  IC50: 0.9 nM

## CC(=O)[C@@H]1Cc2cc3ccc(=O)oc3cc2O1
[2]
  CC50: > 200000 nM
